Assay results taken from patent US10555987B2, “GHRH agonists for the treatment of ischemic disorders” (UNIVERSITY OF MIAMI, priority 2012, dated 2020).
Values joined by “and” are separate entries in the source; they are usually repeats but may differ in a detail not shown here. Identical values can stand only once. Non-standard residues stand in square brackets, D forms with d. Residues, ends and D or L forms follow the SMILES beside them. NMeY = CN[C@@H](Cc1ccc(O)cc1)C(=O)O; Nle = CCCC[C@H](N)C(=O)O; Orn = NCCC[C@H](N)C(=O)O; Abu = CC[C@H](N)C(=O)O; Aoc = NCCCCCCCC(=O)O; Ava = NCCCCC(=O)O

How the values were obtained:
[1] = tested on: myocardial infarction (Fisher-344 rats); experiment: Serial echocardiography after MI, compared to JI-38 (Example 15, Table 15); assay type: in vivo, rat; parameters: key to LVEDD: Left Ventricular End Diastolic Diameter / LVESD: Left Ventricular End Systolic Diameter / VD: Ventricular Diastole / VS: Ventricular Systole / EF: Ejection Fraction / FS: Fraction Shortening: ↓: downward arrow denotes lower than JI-38; ↑: upward arrow denotes greater than JI-38; =denotes same as JI-38; ⬇⬇: double arrow denotes greater effect; ⬆⬆: double arrow denotes greater effect; settings: in comparison to JI-38
Method: Echocardiographic measurements were obtained at baseline, 2 days, 1, 2 and 4 weeks. Echocardiographic assessments were performed in anesthetized rats (2% isoflurane inhalation) using a Vevo-770 echocardiogram (Visual Sonics Inc., Toronto, Ontario, Canada) equipped with a 17.5-MHz transducer. Cardiac dimensions: LV end diastolic (LVEDD), end systolic (LVESD) diameters and fractional shortening (FS) were recorded from M-mode images using averaged measurements from 3 to 5 consecutive cardiac cycles according to the American Society of Echocardiography. Ejection fraction (EF) was calculated from bi-dimensional long-axis parasternal views taken through the infarcted area. All images were analyzed using Vevo 770 3.0.0 software (Visual Sonics Inc., Toronto, Ontario, Canada).
(§1) Myocardial infarction (MI) was induced by permanent ligation of the left coronary artery in female 6-month-old Fisher-344 rats. Following experimental myocardial infarction (MI), rats were randomly assigned to receive either placebo, JI-38, or one of the following new analogs of GHRH: MR-30 l(P-21301), MR-303(P-21303), MR-356(P-20356), MR-502(25502), MR-350(P-20350), MR-36 l(P-20361), MR-367(P-20367), MR-403(P-27403), MR-404(P-27404), and MR-409(P-27409) (10 rats per each group). The GHRH peptide agonists were adminsistered starting 2 hours post-surgery, 1 week, 2 week, and 4 week intervals. All treatment was given subcutaneously twice daily. Cardiac performance was assessed by serial echocardiography and hemodynamic analysis derived from pressure-volume loops as described before.
The echocardiographic experiments are shown in FIGS. 10-15 and the results are summarized in Table 15 (results were expressed in comparison to JI-38; downward arrow denotes lower than JI-38; upward arrow denotes greater than JI-38; =denotes same as JI-38; and double arrow denotes greater effect).

GH release [2] = experiment: In vivo endocrine activity, GH release after intravenous administration (Table 8); settings: rat, i.v. injection
Method: In vivo tests on endocrine activity of new GHRH agonists (Intravenous administration). For in vivo tests based on intravenous administration, adult male Sprague-Dawley rats were anesthetized with pentobarbital (6 mg/100/g, b.w.), and GHRH agonists were injected 20 minutes after the injection of pentobarbital. Blood samples were taken from the jugular vein (pretreated level), immediately after hGHRH(1-29)NH2 injection (as a control) or after hGHRH analogs injection. Blood samples were taken from the jugular vein 5, 15 and 30 minutes after the injection. The blood samples were centrifuged, plasma was removed and the GH level was measured by ELISA.

GH release [3] = experiment: In vivo endocrine activity, GH release after subcutaneous administration (Table 9); settings: rat; for GH releasing potency relative to JI-38 (=1): subcutaneous (s.c.) injection
Method: Subcutaneous Administration. Adult male rats were used and anesthetized with pentobarbital (6 mg/100 g, b.w.), by i.p. injection. […] Blood samples were taken from the jugular vein 5, 15 and/or 30 minutes after the injection. The blood samples were centrifuged, plasma was removed and the GH level was measured byELISA. The results are summarized in terms of potency in Table 9.

GHRH receptor [4] = biological target: T1, GHRH receptor (Homo sapiens, UniProt Q02643); experiment: GHRH receptor binding, competition with 125I-labeled JV-1-42, human pituitary membrane homogenates (Table 7); parameters: Normal human pituitaries were purchased from the National Hormone and Peptide Program; tissue National Hormone and Peptide Program (A.F. Parlow, Harbor-UCLA Medical Center, Torrance, Calif.); host or cells: normal human pituitary, membrane fraction; settings: JI-38 = 1, Table 7
T1 sequence (Q02643 23-423): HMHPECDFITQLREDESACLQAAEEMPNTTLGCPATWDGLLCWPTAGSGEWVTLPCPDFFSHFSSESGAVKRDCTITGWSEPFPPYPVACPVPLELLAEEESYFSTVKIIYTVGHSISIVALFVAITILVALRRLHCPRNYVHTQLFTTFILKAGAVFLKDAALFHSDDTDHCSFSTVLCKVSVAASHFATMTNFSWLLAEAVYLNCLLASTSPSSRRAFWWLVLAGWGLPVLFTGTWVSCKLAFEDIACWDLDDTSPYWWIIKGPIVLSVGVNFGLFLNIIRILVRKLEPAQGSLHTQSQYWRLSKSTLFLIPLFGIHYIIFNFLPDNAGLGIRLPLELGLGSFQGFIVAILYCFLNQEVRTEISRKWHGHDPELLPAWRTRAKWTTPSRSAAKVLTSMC
From the text: Normal human pituitaries were purchased from the National Hormone and Peptide Program (A.F. Parlow, Los Angeles, County Harbor-UCLA Medical Center, Torrance, Calif.).

[5] = tested on: myocardial infarction (Fisher-344 rats); experiment: Hemodynamic analysis (pressure-volume loops), body and heart weight after MI, compared to JI-38 (Example 15, Table 16); assay type: in vivo, rat; parameters: key to ESP (End-Systolic Pressure) / EDP (End-Diastolic Pressure) / ESV (End-Systolic Volume) / PRSW (Preload Recruitable Stroke Work) / Ees (End-systolic Elastance) / dP/dt max (peak rate of the pressure rise) / dP/dt max_EDV / dP/dt min / TAU (relaxation time constant calculated by Weiss method) / SV (Stroke Volume) / CO (Cardiac Output) / SW (Stroke Work) / EF / Ea/Ees / Ea (arterial Elastance): ↓: downward arrow denotes lower than JI-38; ↑: upward arrow denotes greater than JI-38; =denotes same as JI-38; ⬇⬇: double arrow denotes greater effect; ⬆⬆: double arrow denotes greater effect; settings: rat MI model, s.c. twice daily; pressure-volume loops; expressed in comparison to JI-38
Method: Rats were anesthetized by intramuscular injection of a mixture of ketamine (100 mg/kg), xylazine (20 mg/kg) and acepromazine (10 mg/kg). A 2-F micromanometer tipped catheter (SPR-838, Millar Instruments, Houston, Tex.) was inserted into the right carotid artery and advanced retrograde into the left ventricle. Measurements were calibrated by injecting a hypertonic saline (15%) bolus to determine extra-ventricular conductance; relative volume units were converted to actual volume using the cuvette calibration method. All analyses were performed using PVAN 3.0 software (Millar Instruments, Houston, Tex.).
as §1
The hemodynamic studies are shown in FIGS. 16-33 and the results are summarized in Table 16 (results were expressed in comparison to JI-38; downward arrow denotes lower than JI-38; upward arrow denotes greater than JI-38; =denotes same as JI-38; and double arrow denotes greater effect).

GH release [6] = experiment: GH releasing potency in vivo, subcutaneous administration (Example 14, Table 12); parameters: species or system rat; settings: s.c.
Method in brief: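 Potency is expressed relative to GHRH(1-29)NH2 and JI-38 (each = 1), via equivalent GHRH(1-29)NH2 dose read from a standard curve. Peptides in 5% mannitol given i.v. or s.c. to anaesthetised male Sprague-Dawley rats (200-250 g); serum GH measured by ELISA at selected times.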

GHRH receptor [7] = biological target: T1, GHRH receptor; experiment: Receptor binding in vitro, 125I-labeled [His1,Nle27]-hGHRH(1-32)NH2, membrane receptors of human anterior pituitary cells (Table 14)
From the text: Normal human pituitary was purchased from the National Hormone and Peptide Program (UCLA Medical Center, Torrance, Calif.).

CCCC[C@H](NC(=O)[C@@H](NC(=O)[C@H](CC(=O)O)NC(=O)[C@H](CCC(N)=O)NC(=O)[C@H](CC(C)C)NC(=O)[C@H](CC(C)C)NC(=O)[C@H](CCCN)NC(=O)[C@H](CCCNC(=N)N)NC(=O)[C@H](C)NC(=O)[C@H](CO)NC(=O)[C@H](CC(C)C)NC(=O)[C@H](CCC(N)=O)NC(=O)[C@H](CC)NC(=O)[C@H](CC(C)C)NC(=O)[C@@H](NC(=O)[C@H](CCCN)NC(=O)[C@H](CCCNC(=N)N)NC(=O)[C@H](Cc1ccc(O)cc1)NC(=O)[C@H](CO)NC(=O)[C@H](CC(N)=O)NC(=O)[C@@H](NC(=O)[C@H](Cc1ccccc1)NC(=O)[C@@H](NC(=O)[C@H](C)NC(=O)[C@H](CC(=O)O)NC(=O)[C@@H](C)NC(=O)[C@H](Cc1ccc(O)cc1)NC)[C@@H](C)CC)[C@@H](C)O)C(C)C)[C@@H](C)CC)C(=O)N[C@@H](CC(=O)O)C(=O)N[C@@H](CCCNC(=N)N)C(=O)NCCCCCCCC(N)=O [Peptide P-21303, [N—Me-Tyr^1, D-Ala^2, Orn^12, Abu^15, Orn^21, Nle^27, Asp^28, Amc^30]hGHRH(1-30)NH2] (H-[NMeY][dA]DAIFTNSYR[Orn]VL[Abu]QLSAR[Orn]LLQDI[Nle]DR[Aoc]-NH2)
EF: Ejection Fraction [1]: ↓
FS: Fraction Shortening [1]: =
LVEDD: Left Ventricular End Diastolic Diameter [1]: =
LVESD: Left Ventricular End Systolic Diameter [1]: =
VD: Ventricular Diastole [1]: ↑
VS: Ventricular Systole [1]: ↑
GH releasing potency in vivo relative to JI-38 (=1) (GH release [2]; 5 min after): 0.79
GH releasing potency in vivo relative to JI-38 (=1) (GH release [2]; 15 min after): 1.14
GH releasing potency in vivo relative to JI-38 (=1) (GH release [2]; 30 min after): 0.81
GH releasing potency relative to JI-38 (=1) (GH release [3]; 15 min after): 0.95
GH releasing potency relative to JI-38 (=1) (GH release [3]; 30 min after): 1.45
Relative affinity (Binding potency) vs JI-38 (GHRH receptor [4]): 2.32
CO (Cardiac Output) [5]: =
EDP (End-Diastolic Pressure) [5]: ↑
EF [5]: ↑
ESP (End-Systolic Pressure) [5]: ↓
ESV (End-Systolic Volume) [5]: =
Ea (arterial Elastance) [5]: =
Ea/Ees [5]: =
Ees (End-systolic Elastance) [5]: ↓
PRSW (Preload Recruitable Stroke Work) [5]: ↓
SV (Stroke Volume) [5]: =
SW (Stroke Work) [5]: =
TAU (relaxation time constant calculated by Weiss method) [5]: =
dP/dt max (peak rate of the pressure rise) [5]: ↓
dP/dt max_EDV [5]: ↓
dP/dt min [5]: =

CCCC[C@H](NC(=O)[C@@H](NC(=O)[C@H](CC(=O)O)NC(=O)[C@H](CCC(N)=O)NC(=O)[C@H](CC(C)C)NC(=O)[C@H](CC(C)C)NC(=O)[C@H](CCCN)NC(=O)[C@H](CCCNC(=N)N)NC(=O)[C@H](C)NC(=O)[C@H](CO)NC(=O)[C@H](CC(C)C)NC(=O)[C@H](CCC(N)=O)NC(=O)[C@H](CC)NC(=O)[C@H](CC(C)C)NC(=O)[C@@H](NC(=O)[C@H](CCCN)NC(=O)[C@H](CCCNC(=N)N)NC(=O)[C@H](Cc1ccc(O)cc1)NC(=O)[C@H](CO)NC(=O)[C@H](CCC(N)=O)NC(=O)[C@@H](NC(=O)[C@H](Cc1ccccc1)NC(=O)[C@@H](NC(=O)[C@H](C)NC(=O)[C@H](CC(=O)O)NC(=O)[C@@H](C)NC(=O)[C@H](Cc1ccc(O)cc1)NC)[C@@H](C)CC)[C@@H](C)O)C(C)C)[C@@H](C)CC)C(=O)N[C@@H](CC(=O)O)C(=O)N[C@@H](CCCNC(=N)N)C(=O)NCCCCC(N)=O [Peptide P-22326, [N—Me-Tyr^1, D-Ala^2, Gln^8, Orn^12, Abu^15, Orn^21, Nle^27, Asp^28, Apa^30] hGHRH(1-30)NH2] (H-[NMeY][dA]DAIFTQSYR[Orn]VL[Abu]QLSAR[Orn]LLQDI[Nle]DR[Ava]-NH2)
GH releasing potency in vivo relative to JI-38 (=1) (GH release [2]; 15 min after): 0.28
GH releasing potency in vivo relative to JI-38 (=1) (GH release [2]; 30 min after): 0.94
Serum GH level at selected time after injection (ng/ml), 0 min (GH release [6]; male rats, dose 3 μg/kg, 0 min, mean ± SEM): 43.7 ± 6.4 ng/mL
Serum GH level at selected time after injection (ng/ml), 15 min (GH release [6]; male rats, dose 3 μg/kg, 15 min, mean ± SEM): 309.2 ± 33.5 ng/mL
Serum GH level at selected time after injection (ng/ml), 30 min (GH release [6]; male rats, dose 3 μg/kg, 30 min, mean ± SEM): 225.9 ± 19.8 ng/mL
GH-releasing potency after s.c. administration (in words) (GH release [6]): significantly higher potencies at 30 minutes than at 15 minutes
Relative potency compared to GHRH(1-29), 15 min (GH release [6]; 15 min): 92.7
Relative potency compared to JI-38, 15 min (GH release [6]; 15 min, listed as MR-326): 1.5 and 1.47
Relative potency compared to GHRH(1-29), 30 min (GH release [6]; 30 min): 303.4
Relative potency compared to JI-38, 30 min (GH release [6]; 30 min, listed as MR-326): 2.7 and 2.71
Stimulation of growth hormone levels after subcutaneous administration (in words) (GH release [3]; s.c.): stimulated greater growth hormone levels than hGHRH or JI-38
GH releasing potency relative to JI-38 (=1) (GH release [3]; 15 min after): 1.76
GH releasing potency relative to JI-38 (=1) (GH release [3]; 30 min after): 2.31
Relative affinity (Binding potency) vs JI-38 (GHRH receptor [4]): 6.12
Relative affinity (Binding potency) compared to JI-38 (GHRH receptor [7]; JI-38 = 1): 2.80
Relative affinity (Binding potency) compared to hGHRH(1-29) (GHRH receptor [7]; hGHRH(1-29)NH2 = 1): 7.81
